Results on one substance are retold here after patent US20060052303A1, “Use of thyrotropin for regeneration of bone” (priority 2004, published 2006).

For one series, the system named is thyroid. The conditions noted are these: in rats; cited from earlier work.
Series [1] deals with ovariectomized (OVX) rats. The series is described as follows: Bone restoration study in ovariectomized rats with native rat TSH (Example 3B). In kind it is in vivo. The method, then: To confirm that TSH has an anabolic effect on bone, a restoration study was performed, Native rat TSH was administered seven months after ovariectomy essentially following a similar dose and dosing regimen as described in Example 2B except that administration of TSH was extended until 16 weeks.
Twelve animals were sham operated, while forty eight were ovariectomized (OVX) bilaterally by abdominal approach. Treatment started six weeks after ovariectomy as follows: (1) SHAM (n=12); (2) OVX+vehicle (n=12); (3) OVX+0.01 μg (n=12); (3) OVX+0.1 μg (n=12); and (4) OVX+0.3 μg (n=12).
Bone mineral density monitoring in vivo and ex vivo and serum and urine biochemical analyses were performed essentially as described in Example 3A. Eight-month old rats were ovariectomized and then left for seven months to lose bone. Therapy was then started and continued for 16 weeks and BMD was measured both in vivo and ex vivo, and microCT and serum biochemistry were performed.

For series [2] the following is noted: obtained from the Scripps Institute; cited from earlier work.
Another series has as its system OVX rats. The series is described as follows: Treatment of osteopenia in OVX rats using rat TSH (Example 2B). It is filed as in vivo. The method, then:
A similar study following essentially the same dosing regimens. was performed using the native rat TSH in OVX rats. […] Rat TSH with a specific activity of approximately 90 lU/mg was obtained from the Scripps Institute. Bone mineral monitoring in vivo and serum and urine biochemical analyses were performed essentially as described in Example 3A.
Biochemical assays—Urinary levels of deoxypyridinoline cross-links and creatinine (DPD and Cr, respectively) are analyzed in duplicate using rat ELISA kits from Metrobiosystems (Mountain View, Calif., USA). Serum levels of osteocalcin (OSC) are measured using a rat sandwich ELISA kit from Biomedical Technologies (Stroughton, Mass., USA). The manufacturer's protocols are followed, and all samples are assayed in duplicate. A standard curve is generated from each kit, and the absolute concentrations are extrapolated from the standard curve. […]
The complete secondary spongiosa of the proximal tibia is evaluated, thereby completely avoiding sampling errors incurred by random deviations of a single section. […] From the binarized images, structural indices are assessed with three-dimensional (3D) techniques for trabecular bone.
Relative bone volume, trabecular number, thickness, and separation are calculated by measuring 3D distances directly in the trabecular network and taking the mean over all voxels.
Bone surface is calculated from a tetrahedron meshing technique. By displacing the surface of the structure in infinitesimal amounts, the structure model index (SMI) is calculated. The SMI quantifies the plate versus rod characteristics of trabecular bone, in which an SMI of 0 pertains to a purely plate-shaped bone, an SMI of 3 designates a purely rod-like bone, and values between stand for mixtures of plates and rods. Furthermore, connectivity density based on the Euler number is determined. In addition, a 3D cubical voxel model of bone is built, and cortical thickness is measured.

[3] abbreviates: in particular with 0.1 and 0.3 μg/rat.

In the case of “rat TSH: native rat TSH obtained from the Scripps Institute”, the “effectiveness in stimulating thyroid hormone production compared to human recombinant TSH” value in the series with thyroid is reported as 10-20 times. In addition, in series [1] (0.01 μg/rat, 12 and 16 weeks time points), the “BMD values of hind limbs in vivo” value was “did not induce a measurable effect”. In series [1] (0.1 μg/rat), the “cortical thickness above ovariectomized rats” value worked out at 14% and the “cortical thickness above sham animal values” is roughly 10%. Moreover, the “ex vivo proximal femur BMD (DEXA)” value in series [1] (0.3 μg) is “increased”. The “cortical thickness (microCT)” value in series [1] (0.1 and 0.3 μg/rat) was “increased”. For the same substance, the “BMD values of hind limbs in vivo” value in series [1] (0.1 and 0.3 μg/rat, FIG. 14) was “increased”. Moreover, in series [1] (all three doses tested (0.01, 0.1, 0.3 μg)), the “bone volume of long bones and the spine (microCT, trabecular bone ex vivo)” value is “increased”. Also, in series [1] (setting [3]), the “ex vivo lumbar spine BMD” value is given as “increased” and the “ex vivo tibia BMD” value is given as “increased”. Besides, the “trabecular number (microCT)” value in series [1] (lesser extent than trabecular thickness) is on record as “increased”. Moreover, in series [1] (rat, in vivo), the “T3 and T4 serum levels” value is “no measurable increase”; the “ex vivo distal femur BMD (DEXA)” value was “slightly increased”; the “ex vivo total femur BMD (DEXA)” value is “slightly increased”. Also, the “trabecular thickness (microCT)” value in series [1] (vs sham and ovariectomized rats) is “significantly increased”. For the same substance, in series [2], the specific activity entry is listed as “approximately 90 lU/mg”. For the same substance, in the series with OVX rats (0.01, 0.1, 0.3 μg per rat, in vivo total body, hind limbs, lumbar BMD, ex vivo proximal femur and tibia BMD, microCT), the “bone loss associated with ovariectomy” value is on record as “effective in preventing the bone loss”. In addition, in the series with OVX rats (indicates anti-resorptive activity), the “serum collagen C-telopeptide” value is given as “reduction”. For the same substance, the “effective concentration in the rat relative to human TSH” value in the series with OVX rats (rat, in vivo) is “effective in the rat at lower concentration than human TSH”.
